Data published in US20130012432A1, “Peptides for Treatment of Obesity” (Novo Nordisk A/S, priority 2010, published 2013).
pKi: −log10 of the molar value. Converted amounts (≈) assume the structure as drawn. Positions of bridges follow the written chain, without caps; N, C: chain ends. Non-standard residues stand in square brackets, D forms with d. Residues, ends and D or L forms follow the SMILES beside them. Groups on a side chain read outwards from the residue. *: point of attachment. Palmitoyl(16-(5-tetrazolyl)) = O=C(CCCCCCCCCCCCCCCc1nnn[nH]1)*; Lys(CH2CO2H)2 = N[C@@H](CCCCN(CC(=O)O)CC(=O)O)C(=O)O; C16 diacid = O=C(O)CCCCCCCCCCCCCCC(=O)*; NTA = O=C(O)CN(CC(=O)O)CC(=O)*; hCys = N[C@@H](CCS)C(=O)O; Orn = NCCC[C@H](N)C(=O)O; Dap = NC[C@H](N)C(=O)O; AEEA = NCCOCCOCC(=O)O

What was measured:
MC1 receptor = MC1 receptor (Homo sapiens, UniProt Q01726); assay: biochemical
Description: Assay (IV)—Melanocortin Receptor 1 (MC1) Binding Assay
The MC1 receptor binding assay was performed on BHK cell membranes stably expressing the MC1 receptor. The assay was performed in a total volume of 250 μl: 25 μl of ^125NDP-α-MSH (22 pM in final concentration), 25 μl of test compound/control and 200 μl of cell membrane (25 μg/ml). Test compounds were dissolved in DMSO. Radioactively labeled ligand, membranes and test compounds were diluted in buffer: 25 mM HEPES, pH 7.4, 0.1 mM CaCl2, 1 mM MgSO4, 1 mM EDTA, 0.1% HSA and 0.005% Tween™ 20. Alternatively, HSA may be substituted with ovalbumin. The samples were incubated at 30° C. for 90 min. in Costar round-bottom microtiter plates. Incubation was terminated by filtration on a Packard harvester filtermate. Rapid filtration through Packard Unifilter-96 GF/B filters pre-treated with polyetylenimine (PerkinElmer 6005277). The filters were washed with ice-cold 0.9% NaCl 8-10 times. The plates were air-dried at app. 55° C. for 30 min, and 50 μl Microscint 0 (Packard, cat. No. 6013616) was added to each well. The plates were counted in a Topcounter (1 min/well).
The data were analysed by non-linear regression analysis of binding curves, using the Windows™ program GraphPad™ Prism (GraphPad Software, USA).

physchem = assay: physchem
Description: From a stock solution in vehicle, either H2O or 10 mM phosphate, containing 1 mg (as weighed) compound per ml, 8-11 aliquots are withdrawn and pH-adjusted individually with HCl/NaOH, to cover the whole pH range.

Chain of MC1 receptor (Q01726 whole entry): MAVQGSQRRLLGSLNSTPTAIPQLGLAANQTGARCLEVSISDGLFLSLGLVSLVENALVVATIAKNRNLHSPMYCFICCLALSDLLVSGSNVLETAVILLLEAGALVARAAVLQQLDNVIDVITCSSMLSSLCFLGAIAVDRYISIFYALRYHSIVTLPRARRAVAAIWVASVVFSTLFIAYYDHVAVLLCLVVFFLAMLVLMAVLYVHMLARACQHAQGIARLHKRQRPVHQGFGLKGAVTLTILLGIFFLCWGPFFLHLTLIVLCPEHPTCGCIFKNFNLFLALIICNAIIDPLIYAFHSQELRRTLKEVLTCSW

With CC(=O)N[C@H]1CCSSC[C@@H](C(=O)N2CCC[C@H]2C(=O)N2CCC[C@H]2C(=O)N[C@@H](CCCCN)C(=O)N[C@@H](CC(=O)O)C(=O)N[C@@H](CCCCNC(=O)CN(CC(=O)O)CC(=O)O)C(=O)N[C@@H](CCCCNC(=O)COCCOCCNC(=O)CCCCCCCCCCCCCCCc2nnn[nH]2)C(N)=O)NC(=O)[C@H](Cc2c[nH]c3ccccc23)NC(=O)[C@H](CCCNC(=N)N)NC(=O)[C@@H](Cc2ccccc2)NC(=O)[C@H](Cc2c[nH]cn2)NC1=O [Example 65, Ac-c[homoCys-His-D-Phe-Arg-Trp-Cys]-Pro-Pro-Lys-Asp-Lys(BCMA)-Lys[(2-{2-[16-(tetrazol-5-yl)hexadecanoylamino]ethoxy}ethoxy)acetyl]-NH2] (Ac-[hCys]H[dF]RWCPPKDK(NTA)K([AEEA-Palmitoyl(16-(5-tetrazolyl))])-NH2; disulfide 1-6) the pKi (MC1 receptor) was less than 5.00.
In the case of CC(=O)N[C@H]1CCSSC[C@@H](C(=O)N2CCC[C@H]2C(=O)N2CCC[C@H]2C(=O)N[C@@H](CCCCN)C(=O)N[C@@H](CC(=O)O)C(=O)N[C@@H](CNC(=O)CN(CC(=O)O)CC(=O)O)C(=O)N[C@@H](CCCCNC(=O)COCCOCCNC(=O)CCCCCCCCCCCCCCCc2nnn[nH]2)C(=O)O)NC(=O)[C@H](Cc2c[nH]c3ccccc23)NC(=O)[C@H](CCCNC(=N)N)NC(=O)[C@@H](Cc2ccccc2)NC(=O)[C@H](Cc2c[nH]cn2)NC1=O [Example 4, Ac-c[homoCys-His-D-Phe-Arg-Trp-Cys]-Pro-Pro-Lys-Asp-Dap(BCMA)-Lys[(2-{2-[16-(tetrazol-5-yl)hexadecanoylamino]ethoxy}ethoxy)acetyl]-OH] (Ac-[hCys]H[dF]RWCPPKD[Dap](NTA)K([AEEA-Palmitoyl(16-(5-tetrazolyl))])-OH; disulfide 1-6), the pKi (MC1 receptor) was less than 5.00.
In the case of CC(=O)N[C@H]1CSSC[C@@H](C(=O)N2CCC[C@H]2C(=O)N2CCC[C@H]2C(=O)N[C@@H](CCCCN)C(=O)N[C@@H](CCC(=O)O)C(=O)N[C@@H](CCCCN(CC(=O)O)CC(=O)O)C(=O)N[C@@H](CCCCNC(=O)COCCOCCNC(=O)CCCCCCCCCCCCCCC(=O)O)C(N)=O)NC(=O)CNC(=O)[C@H](Cc2c[nH]c3ccccc23)NC(=O)[C@H](CCCNC(=N)N)NC(=O)[C@@H](Cc2ccccc2)NC(=O)[C@H](Cc2c[nH]cn2)NC(=O)[C@H](CCC(=O)O)NC1=O [Example 59, Ac-c[Cys-Glu-His-D-Phe-Arg-Trp-Gly-Cys]-Pro-Pro-Lys-Glu-Lys(biscarboxymethyl)-Lys({2-[2-(15-carboxypentadecanoylamino)ethoxy]ethoxy}acetyl)-NH2] (Ac-CEH[dF]RWGCPPKE[Lys(CH2CO2H)2]K([AEEA-C16 diacid])-NH2; disulfide 1-8), the pKi (MC1 receptor) was less than 5.00.
With CC(=O)N[C@H]1CC(=O)NCCC[C@@H](C(=O)N2CCC[C@H]2C(=O)N2CCC[C@H]2C(=O)N[C@@H](CCCNC(=N)N)C(=O)N[C@@H](CC(=O)O)C(=O)N[C@@H](CCCCN(CC(=O)O)CC(=O)O)C(=O)N[C@@H](CCCCNC(=O)COCCOCCNC(=O)CCCCCCCCCCCCCCCc2nnn[nH]2)C(N)=O)NC(=O)[C@H](Cc2c[nH]c3ccccc23)NC(=O)[C@H](CCCNC(=N)N)NC(=O)[C@@H](Cc2ccccc2)NC(=O)[C@H](Cc2c[nH]cn2)NC1=O [Example 2, Ac-c[Asp-His-D-Phe-Arg-Trp-Orn]-Pro-Pro-Arg-Asp-Lys(biscarboxymethyl)-Lys[(2-{2-[16-(tetrazol-5-yl)hexadecanoylamino]ethoxy}ethoxy)acetyl]-NH2] (Ac-DH[dF]RW[Orn]PPRD[Lys(CH2CO2H)2]K([AEEA-Palmitoyl(16-(5-tetrazolyl))])-NH2; lactam 1-6) the solubility (physchem; pH 5.8, Solubility Conc.) was 21 µM (≈ 45.9 µg/mL), the solubility (physchem; pH 6.4, Solubility Conc.) was 26 µM (≈ 56.9 µg/mL) and the solubility (physchem; pH 7, Solubility Conc.) was 67 µM (≈ 146 µg/mL). The solubility (physchem; pH 7.2, Solubility Conc.) was 172 µM (≈ 376 µg/mL), the solubility (physchem; pH 7.3, Solubility Conc.) was 267 µM (≈ 584 µg/mL) and the solubility (physchem; pH 7.4, Solubility Conc.) was 465 µM (≈ 1020 µg/mL). The solubility (physchem; pH 7.6, Solubility Conc.) was 454 µM (≈ 993 µg/mL) and the solubility (physchem; pH 7.9, Solubility Conc.) was 458 µM (≈ 1000 µg/mL).
